Marks after values point to notes of the source that are not given here.
Assay: Randomized, double-blind, placebo-controlled dose-response study of gemcabene in patients with HDL-C <35 mg/dL; percent change from baseline in serum lipids and apolipoproteins
Type: in vivo, human
Experimental: A randomized, double-blind, placebo-controlled, parallel group, dose-response, multicenter study was conducted. The study was conducted at 11 centers in the United States and one center in Canada. Institutional Review Board approval was obtained at each center and every patient was informed of the study, freely consented to participate and signed an informed consent document. Following a 6-week, single-blind placebo, dietary lead in period conducted according to National Cholesterol Education Program Step 1 Diet, eligible patients with HDL-C level <35 mg/dL (0.9 mmol/L) were stratified according to whether mean serum TG levels, calculated from measures at 2 and 4 weeks prior to randomization, were <200 mg/dL (2.3 mmol/L) or >200 mg/dL (2.3 mmol/L). Within each TG stratum, patients were randomized to receive either 150, 300, 600, or 900 mg of gemcabene or placebo daily once daily for 12 weeks.
Eligible patients were women of non-childbearing potential (naturally postmenopausal or surgically sterilized) or men 18 to 80 years of age with a baseline serum HDL-C levels <35 mg/dL. Patients were excluded if they had creatine kinase serum levels >3 times the upper limit of normal, a body mass index >35 kilogram/meter^2, uncontrolled hypertension defined as sitting diastolic blood pressure >95 mm Hg whether taking or not taking an acceptable antihypertensive medication, uncontrolled diabetes mellitus (Hemoglobin A1C>10%), hepatic dysfunction including asparate aminotransferase or alanine aminotransferase levels >2 times the upper limits of normal, renal dysfunction as defined by blood urea nitrogen or creatinine levels >2 times upper limits of normal or uncontrolled hypothyroidism (thyroid stimulating hormone >1.5 times the upper limits of normal). Also excluded were those with a prior history of known gall bladder disease or pancreatitis, a history of consuming >14 alcoholic drinks per week, or those with a known hypersensitivity to lipid-altering drugs. Patients who had myocardial infarction, severe or unstable angina pectoris, coronary artery bypass graft or any other cardiovascular event requiring hospitalization within the last 3 months were also excluded from the study. Patients were not permitted any other lipid-altering drugs during the course of the study and if on prestudy lipid-altering drug therapy, were required to undergo an additional 4-week washout period. Use of isotretinoin, insulin, warfarin, immunosuppressive agents and intermittent systemic steroids were also prohibited. Alpha-blockers, β-blockers, hormone replacement therapy and oral hypoglycemic agents were permitted provided that their use was stable for at least 3 months.
The primary efficacy parameter was percent change from baseline in serum HDL-C levels at the study subject's last visit. Other efficacy parameters included percent change from baseline in serum LDL-C, TG, apolipoproteins A-I, A-II, B, C-III, E, and non-HDL-C levels. Additionally, nuclear magnetic resonance (NMR) spectroscopy was used to assess VLDL, HDL and LDL particle sizes as well as the total concentration of LDL particles. For HDL-C, non-HDL-C, LDL-C, and TG levels, the baseline value was the mean plasma value of two measurements, one obtained 2 weeks prior to randomization and one obtained at randomization. For all other parameters, the baseline value was defined as the single measurement obtained at randomization.
All blood samples were collected following a 12-hour fast and analyzed by Medical Research Laboratories in Highland Heights, Ky. Blood samples for routine chemistry and hematology profiles were measured at screening, randomization and 4, 8, and 12 weeks following the start of study medication. Basic lipid profiles (HDL-C, LDL-C, and TG) were measured at screening, 2 and 4 weeks prior to starting study medication (during the baseline phase), at randomization, and at weeks 2, 4, 8 and 12 of the treatment phase. […]

[1] = patients with TG <200 mg/dL, 150 mg once daily for 12 weeks, mean ± SE
[2] = patients with TG <200 mg/dL, 150 mg once daily for 12 weeks, median (min, max)
[3] = patients with TG <200 mg/dL, 300 mg once daily for 12 weeks, mean ± SE
[4] = patients with TG <200 mg/dL, 300 mg once daily for 12 weeks, median (min, max)
[5] = patients with TG <200 mg/dL, 600 mg once daily for 12 weeks, mean ± SE
[6] = patients with TG <200 mg/dL, 600 mg once daily for 12 weeks, median (min, max)
[7] = patients with TG <200 mg/dL, 900 mg once daily for 12 weeks, mean ± SE
[8] = patients with TG <200 mg/dL, 900 mg once daily for 12 weeks, median (min, max)
[9] = patients with TG ≧200 mg/dL, 150 mg once daily for 12 weeks, mean ± SE
[10] = patients with TG ≧200 mg/dL, 150 mg once daily for 12 weeks, median (min, max)
[11] = patients with TG ≧200 mg/dL, 300 mg once daily for 12 weeks, mean ± SE
[12] = patients with TG ≧200 mg/dL, 300 mg once daily for 12 weeks, median (min, max)
[13] = patients with TG ≧200 mg/dL, 600 mg once daily for 12 weeks, mean ± SE
[14] = patients with TG ≧200 mg/dL, 600 mg once daily for 12 weeks, median (min, max)
[15] = patients with TG ≧200 mg/dL, 900 mg once daily for 12 weeks, mean ± SE
[16] = patients with TG ≧200 mg/dL, 900 mg once daily for 12 weeks, median (min, max)
[17] = patients with mean baseline TG≧2200 mg/dL (so in the source), 150 mg dose

## CC(C)(CCCCOCCCCC(C)(C)C(=O)[O-])C(=O)[O-].[Ca+2] [gemcabene, 6-(5-carboxy-5-methyl-hexyloxy)-2,2-dimethylhexanoic acid monocalcium salt]
Both TG strata, 600 and 900 mg doses
  levels of apolipoprotein B: corresponding decreases
Both TG strata, higher doses
  reduction of non-HDL-C levels: up to 18%
[1]
  Percent Change from Baseline at Last Visit, Apolipoprotein A-II: 5.5 ± 2.6 %
  Percent Change from Baseline at Last Visit, Apolipoprotein CIII: −7.0 ± 9.2%
  Percent Change from Baseline at Last Visit, HDL-C: 6.2 ± 3.1%
  Percent Change from Baseline at Last Visit, LDL-C: −2.6 ± 4.4%
  Percent Change from Baseline at Last Visit, NonHDL-C: −2.5 ± 4.0%
[2]
  Percent Change from Baseline at Last Visit, Apolipoprotein A-I: 7.3 (−7, 40) %
  Percent Change from Baseline at Last Visit, Apolipoprotein B: −0.7 (−17, 13) %
  Percent Change from Baseline at Last Visit, Apolipoprotein E: −7.7 (−42, 15) %
  Percent Change from Baseline at Last Visit, TG: −0.4 (−33, 32) %
[3]
  Percent Change from Baseline at Last Visit, Apolipoprotein A-II: 3.3 ± 2.8%
  Percent Change from Baseline at Last Visit, Apolipoprotein CIII: −14.3 ± 10.5%
  Percent Change from Baseline at Last Visit, HDL-C: 5.3 ± 3.5%
  Percent Change from Baseline at Last Visit, LDL-C: −5.6 ± 5.2%
  Percent Change from Baseline at Last Visit, NonHDL-C: −11.6 ± 4.2 %
[4]
  Percent Change from Baseline at Last Visit, Apolipoprotein A-I: 1.3 (−11, 31) %
  Percent Change from Baseline at Last Visit, Apolipoprotein B: −11.7 (−33, 2) %
  Percent Change from Baseline at Last Visit, TG: −14.6 (−55, 18) %
[5]
  Percent Change from Baseline at Last Visit, Apolipoprotein A-II: 7.2 ± 2.6 %
  Percent Change from Baseline at Last Visit, Apolipoprotein CIII: 5.4 ± 9.0%
  Percent Change from Baseline at Last Visit, HDL-C: 0.5 ± 3.2%
  Percent Change from Baseline at Last Visit, LDL-C: −24.9 ± 4.6 %
  Percent Change from Baseline at Last Visit, NonHDL-C: −17.6 ± 3.8 %
[6]
  Percent Change from Baseline at Last Visit, Apolipoprotein A-I: 7.1 (−7, 89) %
  Percent Change from Baseline at Last Visit, TG: 6.4 (−45, 97) %
[7]
  Percent Change from Baseline at Last Visit, Apolipoprotein A-II: 6.5 ± 2.5 %
  Percent Change from Baseline at Last Visit, Apolipoprotein CIII: −9.5 ± 8.6%
  Percent Change from Baseline at Last Visit, HDL-C: 5.0 ± 3.2%
  Percent Change from Baseline at Last Visit, LDL-C: −15.2 ± 4.4 %
  Percent Change from Baseline at Last Visit, NonHDL-C: −17.9 ± 3.6 %
[8]
  Percent Change from Baseline at Last Visit, Apolipoprotein A-I: 5.5 (−11, 34) %
  Percent Change from Baseline at Last Visit, Apolipoprotein B: −15.7 (−38, 21) %
  Percent Change from Baseline at Last Visit, TG: −8.1 (−35, 29) %
[9]
  Percent Change from Baseline at Last Visit, Apolipoprotein A-II: 5.9 ± 2.7 %
  Percent Change from Baseline at Last Visit, Apolipoprotein CIII: −23.6 ± 5.7 %
  Percent Change from Baseline at Last Visit, HDL-C: 17.6 ± 3.8 %
  Percent Change from Baseline at Last Visit, NonHDL-C: −1.6 ± 3.6%
[10]
  Percent Change from Baseline at Last Visit, Apolipoprotein B: 0.0 (−29, 33) %
  Percent Change from Baseline at Last Visit, Apolipoprotein E: −20.0 (−52, 19) %
  Percent Change from Baseline at Last Visit, LDL-C: 16.4 (−26,255) %
[11]
  Percent Change from Baseline at Last Visit, Apolipoprotein A-II: 0.5 ± 2.6%
  Percent Change from Baseline at Last Visit, Apolipoprotein CIII: −30.9 ± 5.6 %
  Percent Change from Baseline at Last Visit, HDL-C: 12.3 ± 3.8%
  Percent Change from Baseline at Last Visit, NonHDL-C: −9.4 ± 3.5%
[12]
  Percent Change from Baseline at Last Visit, Apolipoprotein B: −6.5 (−30, 31) %
  Percent Change from Baseline at Last Visit, Apolipoprotein E: −37.4** %
  Percent Change from Baseline at Last Visit, LDL-C: 8.3 (−31, 252) %
[13]
  Percent Change from Baseline at Last Visit, Apolipoprotein A-II: −0.8 ± 3.0%
  Percent Change from Baseline at Last Visit, Apolipoprotein CIII: −6.4 ± 6.5%
  Percent Change from Baseline at Last Visit, HDL-C: −0.9 ± 4.1%
  Percent Change from Baseline at Last Visit, NonHDL-C: −10.9 ± 4.2%
[14]
  Percent Change from Baseline at Last Visit, Apolipoprotein B: −5.7 (−34, 54) %
  Percent Change from Baseline at Last Visit, Apolipoprotein E: −25.4 (−49, 18) %
  Percent Change from Baseline at Last Visit, TG: −12.7 (−59, 38) %
[15]
  Percent Change from Baseline at Last Visit, Apolipoprotein A-II: −4.8 ± 2.6%
  Percent Change from Baseline at Last Visit, Apolipoprotein CIII: −10.8 ± 5.6%
  Percent Change from Baseline at Last Visit, HDL-C: −0.9 ± 3.8%
  Percent Change from Baseline at Last Visit, NonHDL-C: −16.3 ± 4.3 %
[16]
  Percent Change from Baseline at Last Visit, Apolipoprotein E: −11.7 (−59, 65) %
  Percent Change from Baseline at Last Visit, TG: −9.0 %
Patients with mean baseline TG <200 mg/dL, any dose
  serum HDL-C or TG levels versus placebo: no significant differences
[17]
  decrease in apolipoprotein C-III: 23%
  increase in level of apolipoprotein A-I: 6%
  increase in level of apolipoprotein A-II: 6%
  increase in serum HDL-C levels: 18%
  reduction of TG serum levels: 27%
Patients with mean baseline TG≧2200 mg/dL (so in the source), 300 mg dose
  reduction of TG serum levels: 39%
Patients with mean baseline TG≧2200 mg/dL (so in the source), doses of 600 or 900 mg
  serum HDL-C or TG levels versus placebo: No significant differences

— patent publication US20040229954A1, “Selective manipulation of triglyceride, HDL and LDL parameters with 6-(5-carboxy-5-methyl-hexyloxy)-2,2-dimethylhexanoic acid monocalcium salt” (priority 2003, published 2004)
